According to PMC12028158, “Synthesis and In Vitro Evaluation of the Anticancer Effect of Novel Phosphonium Vindoline Derivatives” (International Journal of Molecular Sciences, 2025):

Columns and labels:
Type in all cases: cell-based
OVCAR-3 [1] = experiment: NCI60 five-dose screen; settings: Homo sapiens, OVCAR-3
SF-539 = experiment: NCI60 five-dose screen; settings: Homo sapiens, SF-539
HCT-15 [2] = experiment: NCI60 five-dose screen; settings: Homo sapiens, HCT-15
HS 578T = experiment: NCI60 five-dose screen; settings: Homo sapiens, Hs-578T
OVCAR-8 = experiment: NCI60 one-dose screen; settings: Homo sapiens, OVCAR-8, read-out: Growth percent
Ovarian Cancer panel = experiment: NCI60 five-dose screen, panel mean; settings: Homo sapiens, read-out: Mean GI50
Leukemia panel = experiment: NCI60 five-dose screen, panel mean; settings: Homo sapiens, read-out: Mean GI50
SK-OV-3 = experiment: NCI60 five-dose screen; settings: Homo sapiens, SK-OV-3
HL-60(TB) [3] = experiment: NCI60 five-dose screen; settings: Homo sapiens, HL-60
UACC-62 = experiment: NCI60 one-dose screen; settings: Homo sapiens, UACC-62, read-out: Growth percent
MALME-3M [4] = experiment: NCI60 five-dose screen; settings: Homo sapiens, Malme-3M
Renal Cancer panel = experiment: NCI60 five-dose screen, panel mean; settings: Homo sapiens, read-out: Mean GI50
SK-MEL-28 [5] = experiment: NCI60 one-dose screen; settings: Homo sapiens, SK-MEL-28, read-out: Growth percent
NCI-H23 = experiment: NCI60 one-dose screen; settings: Homo sapiens, NCI-H23, read-out: Growth percent
COLO 205 = experiment: NCI60 five-dose screen; settings: Homo sapiens, COLO 205
CNS Cancer panel = experiment: NCI60 five-dose screen, panel mean; settings: Homo sapiens, read-out: Mean GI50
NCI-H322M [6] = experiment: NCI60 five-dose screen; settings: Homo sapiens
HOP-62 = experiment: NCI60 one-dose screen; settings: Homo sapiens, HOP-62, read-out: Growth percent
BT-549 [7] = experiment: NCI60 one-dose screen; settings: Homo sapiens, BT-549, read-out: Growth percent
RXF 393 [8] = experiment: NCI60 one-dose screen; settings: Homo sapiens, RXF 393, read-out: Growth percent
NCI-H226 = experiment: NCI60 one-dose screen; settings: Homo sapiens, NCI-H226, read-out: Growth percent
BT-549 [9] = experiment: NCI60 five-dose screen; settings: Homo sapiens, BT-549
K-562 = experiment: NCI60 five-dose screen; settings: Homo sapiens, K562
CCRF-CEM = experiment: NCI60 one-dose screen; settings: Homo sapiens, read-out: Growth percent
SK-MEL-2 = experiment: NCI60 one-dose screen; settings: Homo sapiens, SK-MEL-2, read-out: Growth percent
LOX IMVI = experiment: NCI60 one-dose screen; settings: Homo sapiens, read-out: Growth percent
HCC-2998 = experiment: NCI60 five-dose screen; settings: Homo sapiens, HCC 2998
SF-268 = experiment: NCI60 five-dose screen; settings: Homo sapiens, SF-268
OVCAR-3 [10] = experiment: NCI60 one-dose screen; settings: Homo sapiens, OVCAR-3, read-out: Growth percent
MALME-3M [11] = experiment: NCI60 one-dose screen; settings: Homo sapiens, Malme-3M, read-out: Growth percent
OVCAR-4 = experiment: NCI60 one-dose screen; settings: Homo sapiens, OVCAR-4, read-out: Growth percent
A549/ATCC = experiment: NCI60 one-dose screen; settings: Homo sapiens, A549, read-out: Growth percent
SNB-19 = experiment: NCI60 one-dose screen; settings: Homo sapiens, SNB-19, read-out: Growth percent
HCT-116 = experiment: NCI60 one-dose screen; settings: Homo sapiens, HCT-116, read-out: Growth percent
SNB-75 = experiment: NCI60 one-dose screen; settings: Homo sapiens, SNB-75, read-out: Growth percent
UO-31 = experiment: NCI60 one-dose screen; settings: Homo sapiens, UO-31, read-out: Growth percent
NCI/ADR-RES = experiment: NCI60 five-dose screen; settings: Homo sapiens
RPMI-8226 = experiment: NCI60 five-dose screen; settings: Homo sapiens, RPMI-8226
CAKI-1 = experiment: NCI60 one-dose screen; settings: Homo sapiens, CAKI-1, read-out: Growth percent
HL-60(TB) [12] = experiment: NCI60 one-dose screen; settings: Homo sapiens, HL-60, read-out: Growth percent
RXF 393 [13] = experiment: NCI60 five-dose screen; settings: Homo sapiens, RXF 393
HCT-15 [14] = experiment: NCI60 one-dose screen; settings: Homo sapiens, HCT-15, read-out: Growth percent
NCI-H322M [15] = experiment: NCI60 one-dose screen; settings: Homo sapiens, read-out: Growth percent
SK-MEL-28 [16] = experiment: NCI60 five-dose screen; settings: Homo sapiens, SK-MEL-28
HT29 = experiment: NCI60 one-dose screen; settings: Homo sapiens, HT-29, read-out: Growth percent
Breast Cancer panel = experiment: NCI60 five-dose screen, panel mean; settings: Homo sapiens, read-out: Mean GI50

With CC[C@]12C=CCN3CC[C@@]4(c5ccc(OC)cc5N(C)[C@H]4[C@@](O)(C(=O)OC)[C@@H]1OC(=O)CCC[P+](c1ccc(F)cc1)(c1ccc(F)cc1)c1ccc(F)cc1)[C@@H]32 [9c] the GI50 (OVCAR-3 [1]) was 6.47 µM, the GI50 (SF-539) was 16.8 µM and the GI50 (HCT-15 [2]) was over 48.5 µM. It also gave a GI50 (HS 578T) of 11.8 µM, an activity at 10 µM (OVCAR-8) of 28% and a GI50 (Ovarian Cancer panel) of 19 µM. For the same compound, the GI50 (Leukemia panel) was 7.25 µM, the GI50 (SK-OV-3) was 15.8 µM and the GI50 (HL-60(TB) [3]) was 1.77 µM. For the same compound, the activity at 10 µM (UACC-62) was -59.5%, the GI50 (MALME-3M [4]) was 6.85 µM and the GI50 (Renal Cancer panel) was 34.2 µM. For the same compound, the activity at 10 µM (SK-MEL-28 [5]) was -24.1%, the activity at 10 µM (NCI-H23) was 35.5% and the GI50 (COLO 205) was 4.98 µM. For the same compound, the GI50 (CNS Cancer panel) was 20.2 µM, the GI50 (NCI-H322M [6]) was over 48.5 µM and the activity at 10 µM (HOP-62) was 64%. It also gave an activity at 10 µM (BT-549 [7]) of -9.4%, an activity at 10 µM (RXF 393 [8]) of -10.4% and an activity at 10 µM (NCI-H226) of 46.9%. For the same compound, the GI50 (BT-549 [9]) was 8.13 µM, the GI50 (K-562) was 9.83 µM and the activity at 10 µM (CCRF-CEM) was 20%. The activity at 10 µM (SK-MEL-2) was -46.9%, the activity at 10 µM (LOX IMVI) was 31.1% and the GI50 (HCC-2998) was 9.53 µM. The GI50 (SF-268) was 15 µM, the activity at 10 µM (OVCAR-3 [10]) was 21.1% and the activity at 10 µM (MALME-3M [11]) was -32.6%. For the same compound, the activity at 10 µM (OVCAR-4) was 48.6%, the activity at 10 µM (A549/ATCC) was 54.5% and the activity at 10 µM (SNB-19) was 13.8%. For the same compound, the activity at 10 µM (HCT-116) was 32.2%, the activity at 10 µM (SNB-75) was 39.9% and the activity at 10 µM (UO-31) was 81.5%. For the same compound, the GI50 (NCI/ADR-RES) was over 48.5 µM, the GI50 (RPMI-8226) was 2.05 µM and the activity at 10 µM (CAKI-1) was 73.1%. For the same compound, the activity at 10 µM (HL-60(TB) [12]) was -22.9%, the GI50 (RXF 393 [13]) was 8.46 µM and the activity at 10 µM (HCT-15 [14]) was 99.6%. For the same compound, the activity at 10 µM (NCI-H322M [15]) was 65.2%, the GI50 (SK-MEL-28 [16]) was 5.34 µM and the activity at 10 µM (HT29) was 15.7%. The GI50 (Breast Cancer panel) was 8.04 µM.

CC[C@]12C=CCN3CC[C@@]4(c5ccc(OC)cc5N(C)[C@H]4[C@@](O)(C(=O)OC)[C@@H]1OC(=O)CCC[P+](C1CCCCC1)(C1CCCCC1)C1CCCCC1)[C@@H]32 [9d] showed a GI50 (OVCAR-3 [1]) of 1.74 µM, a GI50 (SF-539) of 2.94 µM and a GI50 (HCT-15 [2]) of 15.3 µM. It also gave a GI50 (HS 578T) of 2.45 µM, an activity at 10 µM (OVCAR-8) of 1.19% and a GI50 (Ovarian Cancer panel) of 7.12 µM. The GI50 (Leukemia panel) was 1.2 µM, the GI50 (SK-OV-3) was 2.59 µM and the GI50 (HL-60(TB) [3]) was 0.322 µM. For the same compound, the activity at 10 µM (UACC-62) was -97.3%, the GI50 (MALME-3M [4]) was 1.46 µM and the GI50 (Renal Cancer panel) was 7.93 µM. It also gave an activity at 10 µM (SK-MEL-28 [5]) of -85.9%, an activity at 10 µM (NCI-H23) of -4.73% and a GI50 (COLO 205) of 0.43 µM. The GI50 (CNS Cancer panel) was 2.71 µM, the GI50 (NCI-H322M [6]) was 5.79 µM and the activity at 10 µM (HOP-62) was 4.26%. For the same compound, the activity at 10 µM (BT-549 [7]) was -97.4%, the activity at 10 µM (RXF 393 [8]) was -70.3% and the activity at 10 µM (NCI-H226) was -20%. For the same compound, the GI50 (BT-549 [9]) was 2.44 µM, the GI50 (K-562) was 1.32 µM and the activity at 10 µM (CCRF-CEM) was -40.9%. For the same compound, the activity at 10 µM (SK-MEL-2) was -84.9%, the activity at 10 µM (LOX IMVI) was -96% and the GI50 (HCC-2998) was 1.7 µM. For the same compound, the GI50 (SF-268) was 3.23 µM, the activity at 10 µM (OVCAR-3 [10]) was -48.6% and the activity at 10 µM (MALME-3M [11]) was -96.1%. It also gave an activity at 10 µM (OVCAR-4) of 17.7%, an activity at 10 µM (A549/ATCC) of 14.1% and an activity at 10 µM (SNB-19) of -60%. It also gave an activity at 10 µM (HCT-116) of 0.16%, an activity at 10 µM (SNB-75) of -61.4% and an activity at 10 µM (UO-31) of 76.8%. The GI50 (NCI/ADR-RES) was 35.6 µM, the GI50 (RPMI-8226) was 0.383 µM and the activity at 10 µM (CAKI-1) was -8.49%. The activity at 10 µM (HL-60(TB) [12]) was -37.1%, the GI50 (RXF 393 [13]) was 1.47 µM and the activity at 10 µM (HCT-15 [14]) was 76.6%. For the same compound, the activity at 10 µM (NCI-H322M [15]) was 24.5%, the GI50 (SK-MEL-28 [16]) was 1.08 µM and the activity at 10 µM (HT29) was -56.7%. For the same compound, the GI50 (Breast Cancer panel) was 1.54 µM.
